One block for each molecule: values may come before it.
Assays:
OE21 cells [1] = test: Clonogenic survival assay with IR, OE21; type: cell-based, human; settings: Ru1 2 μM or Cis 500 nM for 24 h before IR
Description: (§1) Clonogenic survival assay. OE21, OE33 or FLO1 cells were treated with 2 µM Ru1 for 24 h before irradiation with 0-8 Gy using a 137Cs γ-irradiator (IBL637, CIS Bio Int.; dose rate = 0.809 Gy min−1). 1 h after irradiation, cells were detached using Trypsin and re-seeded in 6 well plates at a density of 300 – 20,000 cells/well in triplicate in an incrementally greater number of cells with increasing IR dose to ensure adequate colony formation. Cells were incubated for 7–14 days after re-seeding to allow colony formation before being fixed with 10% methanol, 10% acetic acid and stained with 0.4% methylene blue. OE33 cells required an additional formaldehyde fixation (4% in PBS, 5 mins) step before the addition of methylene blue solution or colony detachment occurred. Colonies containing 50 cells or greater were counted using a Gelcount instrument and accompanying software (Oxford Optronix). Plating efficiencies were determined for each treatment condition and normalised to an untreated control to provide the surviving fraction (S. F.). S.F. versus radiation dose curves were plotted in GraphPad Prism and fit using a second order polynomial function (R2 values > 0.99). Dose modifying factors (DMF) at a SF=0.1 were calculated using the equation: Dose modifying factor (DMF) = IR dose to give S.F. 0.1/IR dose plus compound to give S.F.0.1. […]

[2] = test system: OE21 human oesophageal squamous cell carcinoma; test: MTT assay, OE21 cells; type: cell-based; settings: for IC50: MTT
Description: (§2) MTT assay. OE21, FLO-1 or hSAEC1-KT cells were seeded in 96 well plates at 20,000 cells/well (for 24 h treatment) or 10,000 cells/well (for 72 h treatment) and allowed to adhere for 24 h before treatment. OE33 cells were seeded in 48 well plates at 40,000 cells/well (24 h treatment) or 20,000 cells/well (72 h treatment). Cancer cell lines were treated with chemicals dissolved in RPMI media for consistency. After incubation, 0.5 mg/ml MTT (thiazolyl blue tetrazolium bromide) dissolved in serum-free medium was added for 60 minutes and the formazan product eluted using acidified isopropanol.
(§3) The absorbance at 540 nm was quantified by plate reader (reference wavelength 650 nm). The metabolic activity of the cell population was determined as a percentage of a negative (solvent) control. […]
(§4) For the determination of mutation induction, from the untreated and each treated condition, 2x10^5 cells were plated in 10 x 100 mm dishes in selective media (regular media

[3] = test system: hSAEC1-KT normal human small airway epithelial cells; test: MTT assay, hSAEC1-KT cells; type: cell-based
Description: as §2, §3, §4

OE33 cells = test: Clonogenic survival assay with IR, OE33; type: cell-based, human; settings: Ru1 2 μM or Cis 500 nM for 24 h before IR
Description: as §1

[4] = test system: OE33 human oesophageal adenocarcinoma; test: MTT assay, OE33 cells; type: cell-based
Description: as §2, §3, §4

[5] = test system: OE21, OE33 or FLO-1 cells; test: Clonogenic survival assay with IR, three oesophageal cancer cell lines; type: cell-based, human; settings: Ru1 2 μM or sub-cytotoxic cisplatin (500 nM OE21 and OE33, 300 nM FLO-1), 24 h before IR; range over three cell lines
Description: as §1

[6] = test system: FLO-1 human oesophageal adenocarcinoma; test: MTT assay, FLO-1 cells; type: cell-based
Description: as §2, §3, §4

FLO-1 cells = test: Clonogenic survival assay with IR, FLO-1; type: cell-based, human; settings: Ru1 2 μM or Cis 300 nM for 24 h before IR
Description: as §1

OE21 cells [7] = test: DNA fibre assay (replication fork progression); type: cell-based, human
Description: DNA fibre assay. The DNA fibre assay was performed as described previously.5 Briefly, OE21 cells were labelled with 30 µM CldU for 30 mins and then 250 µM IdU for an additional 30 mins. Either Ru1 (21 µM) or dppz (7 µM) was added during the second (IdU) nucleotide step (30 mins). DNA replication was terminated using ice-cold PBS and cells lysed (200 mM Tris-HCl pH 7.4, 50 mM EDTA and 0.5% SDS). DNA fibres were spread onto glass slides, fixed with methanol:acetic acid (3:1) and denatured with 2.5 M HCl. After blocking with 2% BSA, fibres were stained with anti-rat and anti-mouse 5-bromo-2′- deoxyuridine (BrdU) that specifically recognise either CldU (Abcam, dilution 1:500) or IdU (BD Sciences, 1:100). Anti-rat Cy3 (Jackson Immuno Research, 1:300) and anti-mouse Alexa-488 (Molecular Probes, 1:300) were used as the respective secondary antibodies. CldU- and IdU-labelled tracts were visualised using a Leica DMRB microscope with a DFC360FX camera and tract length measured by ImageJ software. Statistical analysis was performed by GraphPad Prism software using an unpaired t-test.
Western blotting. Treated samples were washed with cold PBS and lysed in RIPA (radioimmunoprecipitation assay) buffer containing protease inhibitors (10 μg/mL leupeptin, 2 μg/mL pepstatin, 50 μg/mL antipain, 2 μg/mL aprotinin, 20 μg/mL chyprostatin, 2 μg/mL benzamidine, 1 mM phenylmethanesulfonyl fluoride) and phosphatase inhibitors (50 mM NaF, 1 mM […]
Bis-Tris gels and LDS-PAGE. Gels were transferred onto nitrocellulose membrane and probed with primary antibodies in 5% BSA (bovine serum albumin) solutions at the following dilutions: 1/1000 dilution for majority of Cell Signaling antibodies and γH2AX. 1/500 for anti-p-ATR and anti-cleaved caspase 3. 1/200 anti-Chk1. 1/5000-1/10,000 anti- α-tubulin or β-actin.
(§5) Reactions were visualised with a suitable secondary antibody conjugated with horseradish peroxidase (1/5000 dilution, Thermo). […]

OE21 cells [8] = test: Cell-cycle analysis by flow cytometry; type: cell-based, human; settings: OE21, 7 μM, 24 h
Description: (§6) phototoxic contribution to bio-activity. Doxorubicin (Sigma) was prepared in doubly-distilled water (10 mg/mL, 17.4 mM).
[Ru(phen)2(dppz)]2+ (2 mM) was prepared in doubly-distilled water.
Sub-cellular fractionation. OE21 or OE33 cells were treated in 12 well plates, washed with cold PBS (2x2 mls) and nuclear and cytosol fractions obtained using the Nuclei EZ Lysis kit (Sigma). Briefly, cells were washed with acidified PBS (pH 2.5) to remove the membrane-bound fraction and 0.4 ml EZ lysis buffer was added. Cells were detached by scraping, collected into eppendorfs, vortexed briefly and left for 5 minutes on ice. Samples were centrifuged (500g, 5 mins) and the supernatant (cytosol fraction) aspirated. The pellet (nuclear fraction) was re-suspended in 200 µl RIPA buffer. […] Ruthenium content was determined by ICP-MS analysis as described in a recent […]
DNA fibre assay. […] CldU- and IdU-labelled tracts were visualised using a Leica DMRB microscope with a DFC360FX camera and tract length measured by ImageJ software. […]
Western blotting. […] Protein content was determined by BCA assay. […]
AnnexinV staining. […] This was incubated for 15 mins at room temperature, 400 µl binding buffer added and analysed by flow cytometry (FL1 and FL3 channels for FITC and PI respectively). […]

[9] = cited from earlier work
OE21 cells [10] = test: Western blotting of DNA damage response (DDR) markers; type: cell-based, human; settings: OE21, 24 h treatment
Description: as §6
[Ru(phen)2(dppz)]2+ (2 mM) was prepared in doubly-distilled water. […]
Western blotting. Treated samples were washed with cold PBS and lysed in RIPA (radioimmunoprecipitation assay) buffer containing protease inhibitors (10 μg/mL leupeptin, 2 μg/mL pepstatin, 50 μg/mL antipain, 2 μg/mL aprotinin, 20 μg/mL chyprostatin, 2 μg/mL benzamidine, 1 mM phenylmethanesulfonyl fluoride) and phosphatase inhibitors (50 mM NaF, 1 mM Na3VO4 and 20 mM β-glycerophosphate). Protein content was determined by BCA assay. Aliquots of cell lysates (10-50 μg total protein) were prepared in standard Laemmli buffer, heated at 95 °C for 5 minutes and resolved by NuPAGE® 4–12% Bis-Tris gels and LDS-PAGE. Gels were transferred onto nitrocellulose membrane and probed with primary antibodies in 5% BSA (bovine serum albumin) solutions at the following dilutions: 1/1000 dilution for majority of Cell Signaling antibodies and γH2AX. 1/500 for anti-p-ATR and anti-cleaved caspase 3. 1/200 anti-Chk1. 1/5000-1/10,000 anti- α-tubulin or β-actin.
as §5

Molecule: N.N.[Cl][Pt][Cl] [Cisplatin, cisplatin]
S.F. (OE21 cells [1]; OE21, IR 0 Gy): 1.000 | S.F. (OE21 cells [1]; OE21, IR 2 Gy): 0.587 | S.F. (OE21 cells [1]; OE21, IR 4 Gy): 0.320 | S.F. (OE21 cells [1]; OE21, IR 6 Gy): 0.159 | S.F. (OE21 cells [1]; OE21, IR 8 Gy): 0.049 | IC50 ([2]; OE21, 24 h constant exposure): 22.6 ± 3.6 µM | IC50 ([2]; OE21, 72 h constant exposure): 6.3 ± 0.6 µM | IC50 ([3]; 24 h constant exposure): 21.5 ± 5 µM | IC50 ([3]; 72 h constant exposure): 15.8 ± 2 µM | S.F. (OE33 cells; OE33, IR 0 Gy): 0.993 | S.F. (OE33 cells; OE33, IR 2 Gy): 0.280 | S.F. (OE33 cells; OE33, IR 4 Gy): 0.077 | S.F. (OE33 cells; OE33, IR 6 Gy): 0.022 | S.F. (OE33 cells; OE33, IR 8 Gy): 0.005 | IC50 ([4]; OE33, 24 h constant exposure): 11 ± 1.4 µM | IC50 ([4]; OE33, 72 h constant exposure): 3.25 ± 1 µM | dose modification factor (DMF) at surviving fraction of 0.1 [5]: 1.05–1.44 | IC50 ([6]; FLO1, 24 h constant exposure): 26.5 ± 0.7 µM | IC50 ([6]; FLO1, 72 h constant exposure): 4.7 ± 0.7 µM | S.F. (FLO-1 cells; FLO-1, IR 0 Gy): 0.929 | S.F. (FLO-1 cells; FLO-1, IR 2 Gy): 0.340 | S.F. (FLO-1 cells; FLO-1, IR 4 Gy): 0.080 | S.F. (FLO-1 cells; FLO-1, IR 6 Gy): 0.007

IC50 ([2]; Homo sapiens, Table S2, OE21, 24 h constant incubation): 4.2 ± 0.3 µM | IC50 ([2]; Homo sapiens, Table S2, OE21, 72 h constant incubation): 0.21 ± 0.07 µM | IC50 ([4]; Homo sapiens, Table S2, OE33, 24 h constant incubation): 8.1 ± 2.7 µM | IC50 ([4]; Homo sapiens, Table S2, OE33, 72 h constant incubation): 0.07 ± 0.03 µM | IC50 ([6]; Homo sapiens, FLO-1, Table S2, FLO1, 24 h constant incubation): 6.1 ± 1.9 µM | IC50 ([6]; Homo sapiens, FLO-1, Table S2, FLO1, 72 h constant incubation): 0.05 ± 0.02 µM
Molecule: COc1cccc2c1C(=O)c1c(O)c3c(c(O)c1C2=O)C[C@@](O)(C(=O)CO)C[C@@H]3O[C@H]1C[C@H](N)[C@H](O)[C@H](C)O1 [DOX, doxorubicin]
reduction in potency towards OE21 cells compared to OE33 or FLO-1 cells ([2]; 72 h exposure): three-fold

IC50 ([2]; Homo sapiens, OE21, 24 h constant exposure): 6.5 ± 2.1 µM | IC50 ([2]; Homo sapiens, OE21, 72 h constant exposure): 3.3 ± 0.4 µM | IC50 ([4]; Homo sapiens, OE33, 24 h constant exposure): 6.6 ± 2 µM | IC50 ([4]; Homo sapiens, OE33, 72 h constant exposure): 5.7 ± 0.9 µM | IC50 ([6]; Homo sapiens, FLO-1, FLO1, 24 h constant exposure): 7.5 ± 0.8 µM | IC50 ([6]; Homo sapiens, FLO-1, FLO1, 72 h constant exposure): 1.9 ± 1.1 µM
Molecule: c1ccc2nc3c4cccnc4c4ncccc4c3nc2c1 [dppz, dipyridophenazine]
increase in completely stalled/terminated replication forks (CldU tract only) compared to mock-treated (OE21 cells [7]; Ru1 21 μM or dppz 7 μM during second (IdU) pulse, 30 min): three-fold | greater levels of stalled forks than Ru1 (OE21 cells [7]; dppz 7 μM vs Ru1 21 μM): two-fold | IC50 ([3]; Homo sapiens, Epithelial cell, 24 h constant exposure): > 10 µM | IC50 ([3]; Homo sapiens, Epithelial cell, 72 h constant exposure): > 10 µM | cell-cycle response (OE21 cells [8]): cells accumulated in G1 or early S phase

Molecule: [Ru(phen)2(dppz)]^2+
IC50 ([2]; OE21, 24 h constant exposure): > 100 µM | IC50 ([2]; OE21, 72 h constant exposure): > 100 µM | log P [9]: –1.48 | DDR activation (γH2AX immunoblotting) (OE21 cells [10]): no evidence of DDR activation | IC50 ([4]; OE33, 24 h constant exposure): > 100 µM | IC50 ([4]; OE33, 72 h constant exposure): > 100 µM | IC50 ([6]; FLO1, 24 h constant exposure): > 100 µM | IC50 ([6]; FLO1, 72 h constant exposure): 34 ± 5.7 µM
